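Tested at 5 concentrations; 48 h exposure; 96-well plates; endpoints linearly interpolated, else capped at highest concentration. TGI marks complete inhibition of growth.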
Assays:
Experiment in all cases: NCI anticancer screen, dose series, 48 h
[1] = system: A549 NSCLC
[2] = system: OVCAR-3 ovarian
[3] = system: A498 renal
[4] = system: HOP-62 NSCLC
[5] = system: NCI-H460 lung
[6] = system: OVCAR-8 ovarian
[7] = system: SK-MEL-2 melanoma
[8] = system: PC-3 prostate
[9] = system: COLO 205 colon
[10] = system: HS 578T breast
[11] = system: MDA-MB-435
[12] = system: EKVX NSCLC
[13] = system: SNB-19 CNS
[14] = system: SNB-75 CNS
[15] = system: RPMI-8226 leukemia
[16] = system: TK-10 renal
[17] = system: UACC-257 melanoma
[18] = system: RXF 393 renal
[19] = system: T-47D breast
[20] = system: MDA-MB-231 breast
[21] = system: CAKI-1 renal
[22] = system: HCC-2998 colon
[23] = system: OVCAR-4 ovarian
[24] = system: HOP-92 NSCLC
[25] = system: UO-31 renal
[26] = system: SF-268 CNS
[27] = system: NCI-H23 lung
[28] = system: U251 CNS
[29] = system: UACC-62 melanoma
[30] = system: 786-0 renal
[31] = system: SK-OV-3 ovarian
[32] = system: NCI-H522 lung
[33] = system: SW-620 colon
[34] = system: DU-145 prostate
[35] = system: ACHN renal
[36] = system: SK-MEL-5 melanoma
[37] = system: CCRF-CEM leukemia
[38] = system: NCI-H226 lung
[39] = system: MDA-N
[40] = system: MCF7 breast
[41] = system: KM12 colon
[42] = system: NCI/ADR-RES ovarian
[43] = system: LOX IMVI melanoma
[44] = system: K-562 leukemia
[45] = system: HCT-116 colon
[46] = system: BT-549 breast
[47] = system: HT29 colon
[48] = system: SF-539 CNS
[49] = system: HCT-15 colon
[50] = system: SN12C renal
[51] = system: SF-295 CNS
[52] = system: MOLT-4 leukemia
[53] = system: OVCAR-5 ovarian
[54] = system: MALME-3M melanoma
[55] = system: M14 melanoma
[56] = system: IGROV1 ovarian
[57] = system: HL-60(TB) leukemia
[58] = system: SK-MEL-28 melanoma

In the case of `CCCCNc1nc2nc[nH]c2c(=O)[nH]1`, the TGI [1] is reported as > 100 µM, the TGI [2] is reported as > 100 µM and the TGI [3] is reported as > 100 µM. The TGI [4] was > 100 µM, the TGI [5] was > 100 µM and the TGI [6] was > 100 µM. The TGI [7] was > 100 µM, the TGI [8] was > 100 µM and the TGI [9] was > 100 µM. For the same compound, the TGI [10] was > 100 µM, the TGI [11] was > 100 µM and the TGI [12] was > 100 µM. For the same compound, the TGI [13] was > 100 µM, the TGI [14] was > 100 µM and the TGI [15] was > 100 µM. For the same compound, the TGI [16] was > 100 µM, the TGI [17] was > 100 µM and the TGI [18] was > 100 µM. The TGI [19] was > 100 µM, the TGI [20] was > 100 µM and the TGI [21] was > 100 µM. For the same compound, the TGI [22] was > 100 µM, the TGI [23] was > 100 µM and the TGI [24] was > 100 µM. The TGI [25] was > 100 µM, the TGI [26] was > 100 µM and the TGI [27] was > 100 µM. For the same compound, the TGI [28] was > 100 µM, the TGI [29] was > 100 µM and the TGI [30] was > 100 µM. For the same compound, the TGI [31] was > 100 µM, the TGI [32] was > 100 µM and the TGI [33] was > 100 µM. The TGI [34] was > 100 µM, the TGI [35] was > 100 µM and the TGI [36] was > 100 µM. The TGI [37] was > 100 µM, the TGI [38] was > 100 µM and the TGI [39] was > 100 µM. The TGI [40] was > 100 µM, the TGI [41] was > 100 µM and the TGI [42] was > 100 µM. For the same compound, the TGI [43] was > 100 µM, the TGI [44] was > 100 µM and the TGI [45] was > 100 µM. For the same compound, the TGI [46] was > 100 µM, the TGI [47] was > 100 µM and the TGI [48] was > 100 µM. The TGI [49] was > 100 µM, the TGI [50] was > 100 µM and the TGI [51] was > 100 µM. For the same compound, the TGI [52] was > 100 µM, the TGI [53] was > 100 µM and the TGI [54] was > 100 µM. For the same compound, the TGI [55] was > 100 µM and the TGI [56] was > 100 µM.

With `N#CCCN(CCCN(C(=O)N(c1ccccc1)c1ccccc1)c1ccccc1)C(=O)Nc1ccccc1` the TGI [1] was > 100 µM, the TGI [2] was > 100 µM and the TGI [3] was > 100 µM. For the same compound, the TGI [4] was > 100 µM, the TGI [5] was > 100 µM and the TGI [6] was > 100 µM. For the same compound, the TGI [7] was > 100 µM, the TGI [8] was > 100 µM and the TGI [10] was > 100 µM. The TGI [11] was > 100 µM, the TGI [12] was > 100 µM and the TGI [57] was 45.1 µM. For the same compound, the TGI [13] was > 100 µM, the TGI [14] was > 100 µM and the TGI [15] was > 100 µM. For the same compound, the TGI [16] was > 100 µM, the TGI [17] was > 100 µM and the TGI [18] was > 100 µM. For the same compound, the TGI [19] was > 100 µM, the TGI [20] was > 100 µM and the TGI [21] was > 100 µM. The TGI [22] was > 100 µM, the TGI [23] was > 100 µM and the TGI [24] was > 100 µM. The TGI [25] was > 100 µM, the TGI [26] was > 100 µM and the TGI [27] was > 100 µM. The TGI [28] was > 100 µM, the TGI [29] was > 100 µM and the TGI [30] was > 100 µM. For the same compound, the TGI [31] was > 100 µM, the TGI [32] was > 100 µM and the TGI [33] was > 100 µM. For the same compound, the TGI [34] was > 100 µM, the TGI [35] was > 100 µM and the TGI [36] was > 100 µM. The TGI [37] was 83.6 µM, the TGI [38] was > 100 µM and the TGI [39] was > 100 µM. The TGI [40] was > 100 µM, the TGI [41] was > 100 µM and the TGI [42] was > 100 µM. For the same compound, the TGI [43] was > 100 µM, the TGI [58] was > 100 µM and the TGI [44] was > 100 µM. For the same compound, the TGI [45] was > 100 µM, the TGI [46] was > 100 µM and the TGI [47] was > 100 µM. For the same compound, the TGI [48] was > 100 µM, the TGI [49] was > 100 µM and the TGI [51] was > 100 µM. For the same compound, the TGI [52] was > 100 µM, the TGI [53] was > 100 µM and the TGI [54] was > 100 µM. The TGI [55] was > 100 µM.
